Reference: paper PMC7377474, “Preclinical characterization of CPL302-253, a selective inhibitor of PI3Kδ, as the candidate for the inhalatory treatment and prevention of Asthma” (PLoS ONE, 2020)

Experiments:
Assay in all cases: SafetyScan44
Type in all cases: cell-based
[1] = biological target: T1, HTR2B (Homo sapiens, UniProt P41595); conditions: 10 μM
T1 construct: purchased DiscoverX (Eurofins) SafetyScan44
Procedure: (§1) SafetyScan44 assay was performed by DiscoverX according to service provider’s protocol.

[2] = biological target: T2, CCKAR (Homo sapiens, UniProt P32238); conditions: 10 μM
T2 construct: purchased DiscoverX (Eurofins) SafetyScan44
Procedure: as §1

[3] = biological target: T3, OPRD1 (Homo sapiens, UniProt P41143); conditions: 10 μM
T3 construct: purchased DiscoverX (Eurofins) SafetyScan44
Procedure: as §1

[4] = biological target: T4, AR (Homo sapiens, UniProt P10275); conditions: 10 μM
T4 construct: purchased DiscoverX (Eurofins) SafetyScan44
Procedure: as §1

[5] = biological target: T5, COX2 (Homo sapiens, UniProt P35354); conditions: 10 μM; Inhibitor mode
T5 construct: purchased DiscoverX (Eurofins) SafetyScan44
Procedure: as §1

[6] = biological target: T6, AVPR1A (Homo sapiens, UniProt P37288); conditions: 10 μM
T6 construct: purchased DiscoverX (Eurofins) SafetyScan44
Procedure: as §1

[7] = biological target: T7, HTR1B (Homo sapiens, UniProt P28222); conditions: 10 μM
T7 construct: purchased DiscoverX (Eurofins) SafetyScan44
Procedure: as §1

[8] = biological target: T8, HRH2 (Homo sapiens, UniProt P25021); conditions: 10 μM
T8 construct: purchased DiscoverX (Eurofins) SafetyScan44
Procedure: as §1

[9] = biological target: T9, CHRM2 (Homo sapiens, UniProt P08172); conditions: 10 μM
T9 construct: purchased DiscoverX (Eurofins) SafetyScan44
Procedure: as §1

[10] = biological target: T10, ADRB1 (Homo sapiens, UniProt P08588); conditions: 10 μM
T10 construct: purchased DiscoverX (Eurofins) SafetyScan44
Procedure: as §1

[11] = biological target: T11, HRH1 (Homo sapiens, UniProt P35367); conditions: 10 μM
T11 construct: purchased DiscoverX (Eurofins) SafetyScan44
Procedure: as §1

[12] = biological target: T12, OPRM1 (Homo sapiens, UniProt P35372); conditions: 10 μM
T12 construct: purchased DiscoverX (Eurofins) SafetyScan44
Procedure: as §1

[13] = biological target: T13, NET (Homo sapiens, UniProt P23975); conditions: 10 μM; Blocker mode
T13 construct: purchased DiscoverX (Eurofins) SafetyScan44
Procedure: as §1

[14] = biological target: T14, SERT (Homo sapiens, UniProt P31645); conditions: 10 μM; Blocker mode
T14 construct: purchased DiscoverX (Eurofins) SafetyScan44
Procedure: as §1

[15] = biological target: T15, EDNRA (Homo sapiens, UniProt P25101); conditions: 10 μM
T15 construct: purchased DiscoverX (Eurofins) SafetyScan44
Procedure: as §1

[16] = biological target: T16, OPRK1 (Homo sapiens, UniProt P41145); conditions: 10 μM
T16 construct: purchased DiscoverX (Eurofins) SafetyScan44
Procedure: as §1

[17] = biological target: T17, VEGFR2 (Homo sapiens, UniProt P35968); conditions: 10 μM; Inhibitor mode
T17 construct: purchased DiscoverX (Eurofins) SafetyScan44
Procedure: as §1

[18] = biological target: T18, HTR2A (Homo sapiens, UniProt P28223); conditions: 10 μM
T18 construct: purchased DiscoverX (Eurofins) SafetyScan44
Procedure: as §1

[19] = biological target: T19, DAT (Homo sapiens, UniProt Q01959); conditions: 10 μM; Blocker mode
T19 construct: purchased DiscoverX (Eurofins) SafetyScan44
Procedure: as §1

[20] = biological target: T20, ADORA2A (Homo sapiens, UniProt P29274); conditions: 10 μM
T20 construct: purchased DiscoverX (Eurofins) SafetyScan44
Procedure: as §1

[21] = biological target: T21, MAOA (Homo sapiens, UniProt P21397); conditions: 10 μM; Inhibitor mode
T21 construct: purchased DiscoverX (Eurofins) SafetyScan44
Procedure: as §1

[22] = biological target: T22, ADRA1A (Homo sapiens, UniProt P35348); conditions: 10 μM
T22 construct: purchased DiscoverX (Eurofins) SafetyScan44
Procedure: as §1

[23] = biological target: T23, LCK (Homo sapiens, UniProt P06239); conditions: 10 μM; Inhibitor mode
T23 construct: purchased DiscoverX (Eurofins) SafetyScan44
Procedure: as §1

[24] = biological target: T24, CHRM1 (Homo sapiens, UniProt P11229); conditions: 10 μM
T24 construct: purchased DiscoverX (Eurofins) SafetyScan44
Procedure: as §1

[25] = biological target: T25, ROCK1 (Homo sapiens, UniProt Q13464); conditions: 10 μM; Inhibitor mode
T25 construct: purchased DiscoverX (Eurofins) SafetyScan44
Procedure: as §1

[26] = biological target: T26, DRD1 (Homo sapiens, UniProt P21728); conditions: 10 μM
T26 construct: purchased DiscoverX (Eurofins) SafetyScan44
Procedure: as §1

[27] = biological target: T27, PDE3A (Homo sapiens, UniProt Q14432); conditions: 10 μM; Inhibitor mode
T27 construct: purchased DiscoverX (Eurofins) SafetyScan44
Procedure: as §1

[28] = biological target: T28, PDE4D2 (Homo sapiens, UniProt Q08499); conditions: 10 μM; Inhibitor mode
T28 construct: purchased DiscoverX (Eurofins) SafetyScan44
Procedure: as §1

[29] = biological target: T29, CNR1 (Homo sapiens, UniProt P21554); conditions: 10 μM
T29 construct: purchased DiscoverX (Eurofins) SafetyScan44
Procedure: as §1

[30] = biological target: T30, CAV1.2 (Homo sapiens, UniProt Q13936); conditions: 10 μM; Blocker mode
T30 construct: purchased DiscoverX (Eurofins) SafetyScan44
Procedure: as §1

[31] = biological target: T31, CNR2 (Homo sapiens, UniProt P34972); conditions: 10 μM
T31 construct: purchased DiscoverX (Eurofins) SafetyScan44
Procedure: as §1

[32] = biological target: T32, HTR3A (Homo sapiens, UniProt P46098); conditions: 10 μM
T32 construct: purchased DiscoverX (Eurofins) SafetyScan44
Procedure: as §1

[33] = biological target: T33, CHRM3 (Homo sapiens, UniProt P20309); conditions: 10 μM
T33 construct: purchased DiscoverX (Eurofins) SafetyScan44
Procedure: as §1

[34] = biological target: T34, AChE (Homo sapiens, UniProt P22303); conditions: 10 μM; Inhibitor mode
T34 construct: purchased DiscoverX (Eurofins) SafetyScan44
Procedure: as §1

[35] = biological target: T35, ADRA2A (Homo sapiens, UniProt P08913); conditions: 10 μM
T35 construct: purchased DiscoverX (Eurofins) SafetyScan44
Procedure: as §1

[36] = test system: GABAA; conditions: 10 μM
Procedure: as §1

[37] = biological target: T36, GR (Homo sapiens, UniProt P04150); conditions: 10 μM
T36 construct: purchased DiscoverX (Eurofins) SafetyScan44
Procedure: as §1

T10 sequence (P08588 whole entry): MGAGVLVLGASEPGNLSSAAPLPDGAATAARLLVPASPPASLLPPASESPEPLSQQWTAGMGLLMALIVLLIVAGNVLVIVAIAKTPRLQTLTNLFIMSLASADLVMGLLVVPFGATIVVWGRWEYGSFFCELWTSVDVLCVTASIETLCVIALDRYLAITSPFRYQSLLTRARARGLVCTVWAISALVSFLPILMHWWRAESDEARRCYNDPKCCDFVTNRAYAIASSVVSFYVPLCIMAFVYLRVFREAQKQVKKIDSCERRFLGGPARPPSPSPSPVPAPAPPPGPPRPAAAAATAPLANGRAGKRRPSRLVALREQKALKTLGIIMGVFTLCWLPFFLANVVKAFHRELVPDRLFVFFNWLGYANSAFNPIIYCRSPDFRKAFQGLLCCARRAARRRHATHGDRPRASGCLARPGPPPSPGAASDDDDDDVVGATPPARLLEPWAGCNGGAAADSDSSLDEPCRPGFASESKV
T33 sequence (P20309 whole entry): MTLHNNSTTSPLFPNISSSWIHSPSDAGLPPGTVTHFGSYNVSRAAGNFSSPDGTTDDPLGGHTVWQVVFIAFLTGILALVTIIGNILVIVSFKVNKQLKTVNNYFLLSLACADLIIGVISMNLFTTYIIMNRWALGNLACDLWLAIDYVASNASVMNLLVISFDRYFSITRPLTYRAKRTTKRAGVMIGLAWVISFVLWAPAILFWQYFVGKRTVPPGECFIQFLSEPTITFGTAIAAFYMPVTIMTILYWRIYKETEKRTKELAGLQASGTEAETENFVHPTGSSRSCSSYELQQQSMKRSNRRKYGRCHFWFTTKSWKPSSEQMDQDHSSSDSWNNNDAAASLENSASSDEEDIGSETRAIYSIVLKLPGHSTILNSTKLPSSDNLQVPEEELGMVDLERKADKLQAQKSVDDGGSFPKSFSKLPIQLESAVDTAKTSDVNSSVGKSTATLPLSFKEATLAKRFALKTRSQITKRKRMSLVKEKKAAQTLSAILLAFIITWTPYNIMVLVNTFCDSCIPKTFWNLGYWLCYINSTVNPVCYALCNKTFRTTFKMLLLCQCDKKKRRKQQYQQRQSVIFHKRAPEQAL
T4 sequence (P10275 whole entry): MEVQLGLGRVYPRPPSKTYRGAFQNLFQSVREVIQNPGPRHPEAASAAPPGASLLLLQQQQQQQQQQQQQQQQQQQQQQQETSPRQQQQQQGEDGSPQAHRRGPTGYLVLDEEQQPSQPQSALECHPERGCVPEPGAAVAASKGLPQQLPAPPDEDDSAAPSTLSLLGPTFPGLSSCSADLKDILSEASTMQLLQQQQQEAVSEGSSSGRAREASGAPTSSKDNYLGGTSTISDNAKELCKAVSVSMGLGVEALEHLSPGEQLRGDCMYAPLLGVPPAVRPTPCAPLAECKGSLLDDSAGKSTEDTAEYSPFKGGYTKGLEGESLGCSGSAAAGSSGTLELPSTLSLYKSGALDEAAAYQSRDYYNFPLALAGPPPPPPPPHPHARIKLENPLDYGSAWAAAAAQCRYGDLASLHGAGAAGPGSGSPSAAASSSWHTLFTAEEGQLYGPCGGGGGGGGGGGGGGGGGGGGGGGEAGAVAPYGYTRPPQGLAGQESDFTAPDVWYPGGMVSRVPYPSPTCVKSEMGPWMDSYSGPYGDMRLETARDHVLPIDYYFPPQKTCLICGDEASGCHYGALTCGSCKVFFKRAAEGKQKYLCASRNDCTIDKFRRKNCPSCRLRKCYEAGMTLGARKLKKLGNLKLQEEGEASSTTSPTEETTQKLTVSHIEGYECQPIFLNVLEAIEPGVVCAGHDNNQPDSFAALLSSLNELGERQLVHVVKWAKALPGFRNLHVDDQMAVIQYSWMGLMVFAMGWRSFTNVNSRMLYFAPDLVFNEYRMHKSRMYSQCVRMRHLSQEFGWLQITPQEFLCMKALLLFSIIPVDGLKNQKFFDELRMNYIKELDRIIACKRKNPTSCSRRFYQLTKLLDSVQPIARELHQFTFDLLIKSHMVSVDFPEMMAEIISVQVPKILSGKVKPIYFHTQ
T32 sequence (P46098 24-478): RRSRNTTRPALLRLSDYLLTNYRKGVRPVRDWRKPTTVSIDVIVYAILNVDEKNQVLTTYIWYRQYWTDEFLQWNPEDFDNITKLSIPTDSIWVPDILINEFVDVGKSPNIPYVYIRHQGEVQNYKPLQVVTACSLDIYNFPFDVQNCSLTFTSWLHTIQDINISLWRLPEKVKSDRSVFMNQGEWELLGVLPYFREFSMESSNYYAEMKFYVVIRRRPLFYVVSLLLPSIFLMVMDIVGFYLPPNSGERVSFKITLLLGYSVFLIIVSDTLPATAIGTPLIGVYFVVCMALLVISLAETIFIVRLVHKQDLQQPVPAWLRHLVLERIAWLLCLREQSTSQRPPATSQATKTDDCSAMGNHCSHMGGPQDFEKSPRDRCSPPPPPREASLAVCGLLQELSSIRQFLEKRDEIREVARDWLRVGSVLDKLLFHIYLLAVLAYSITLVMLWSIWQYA
T31 sequence (P34972 whole entry): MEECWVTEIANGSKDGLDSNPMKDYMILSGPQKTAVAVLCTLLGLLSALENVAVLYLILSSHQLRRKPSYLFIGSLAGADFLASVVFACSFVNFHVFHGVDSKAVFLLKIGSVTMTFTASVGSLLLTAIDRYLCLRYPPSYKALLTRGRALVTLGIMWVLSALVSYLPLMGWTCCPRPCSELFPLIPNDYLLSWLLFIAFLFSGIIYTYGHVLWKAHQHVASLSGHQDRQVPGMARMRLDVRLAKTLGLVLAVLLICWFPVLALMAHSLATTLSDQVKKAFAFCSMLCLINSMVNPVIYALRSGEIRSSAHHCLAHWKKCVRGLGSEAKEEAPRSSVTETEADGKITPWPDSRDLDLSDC
T16 sequence (P41145 whole entry): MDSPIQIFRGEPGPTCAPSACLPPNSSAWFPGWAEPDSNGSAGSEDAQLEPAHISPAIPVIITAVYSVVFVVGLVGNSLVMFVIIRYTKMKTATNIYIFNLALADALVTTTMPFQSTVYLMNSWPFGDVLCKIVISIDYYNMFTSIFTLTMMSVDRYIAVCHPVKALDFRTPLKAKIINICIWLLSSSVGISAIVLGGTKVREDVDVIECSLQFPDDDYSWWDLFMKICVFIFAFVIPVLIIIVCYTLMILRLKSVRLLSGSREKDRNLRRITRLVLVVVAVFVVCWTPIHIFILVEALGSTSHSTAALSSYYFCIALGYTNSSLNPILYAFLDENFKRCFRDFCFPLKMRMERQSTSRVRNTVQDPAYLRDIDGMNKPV
T7 sequence (P28222 whole entry): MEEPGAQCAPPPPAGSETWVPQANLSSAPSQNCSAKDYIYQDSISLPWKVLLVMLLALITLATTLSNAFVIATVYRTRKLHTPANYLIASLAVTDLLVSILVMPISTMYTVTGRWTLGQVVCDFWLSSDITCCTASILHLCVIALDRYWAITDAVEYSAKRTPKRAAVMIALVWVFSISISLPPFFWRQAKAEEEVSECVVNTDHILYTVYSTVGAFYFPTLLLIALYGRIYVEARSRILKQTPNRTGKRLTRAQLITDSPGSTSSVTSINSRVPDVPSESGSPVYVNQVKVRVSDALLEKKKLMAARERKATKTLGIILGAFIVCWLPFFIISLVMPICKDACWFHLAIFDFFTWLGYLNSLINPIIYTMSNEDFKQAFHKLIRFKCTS
T15 sequence (P25101 21-427): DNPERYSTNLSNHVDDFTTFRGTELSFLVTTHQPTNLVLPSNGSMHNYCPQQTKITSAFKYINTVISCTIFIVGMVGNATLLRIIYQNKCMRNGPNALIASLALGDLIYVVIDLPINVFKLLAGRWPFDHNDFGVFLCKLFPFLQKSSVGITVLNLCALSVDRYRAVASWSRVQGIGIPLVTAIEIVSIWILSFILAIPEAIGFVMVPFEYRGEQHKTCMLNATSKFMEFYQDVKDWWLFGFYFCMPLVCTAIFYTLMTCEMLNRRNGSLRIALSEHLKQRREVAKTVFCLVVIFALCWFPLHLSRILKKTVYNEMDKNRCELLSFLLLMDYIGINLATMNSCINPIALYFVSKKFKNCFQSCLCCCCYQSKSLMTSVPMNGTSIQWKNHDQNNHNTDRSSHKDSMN
T35 sequence (P08913 whole entry): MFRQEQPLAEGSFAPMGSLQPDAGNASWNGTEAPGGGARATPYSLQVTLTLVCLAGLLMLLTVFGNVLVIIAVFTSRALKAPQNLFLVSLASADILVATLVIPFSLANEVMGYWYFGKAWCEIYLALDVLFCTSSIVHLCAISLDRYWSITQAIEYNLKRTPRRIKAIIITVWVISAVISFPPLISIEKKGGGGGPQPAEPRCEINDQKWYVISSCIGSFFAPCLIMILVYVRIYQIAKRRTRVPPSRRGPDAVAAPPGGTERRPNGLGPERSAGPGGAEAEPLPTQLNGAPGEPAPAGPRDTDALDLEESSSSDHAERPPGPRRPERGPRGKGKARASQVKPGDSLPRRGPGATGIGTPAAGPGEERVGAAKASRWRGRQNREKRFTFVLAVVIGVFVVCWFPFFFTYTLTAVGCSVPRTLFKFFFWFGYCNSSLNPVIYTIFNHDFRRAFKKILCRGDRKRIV
T11 sequence (P35367 whole entry): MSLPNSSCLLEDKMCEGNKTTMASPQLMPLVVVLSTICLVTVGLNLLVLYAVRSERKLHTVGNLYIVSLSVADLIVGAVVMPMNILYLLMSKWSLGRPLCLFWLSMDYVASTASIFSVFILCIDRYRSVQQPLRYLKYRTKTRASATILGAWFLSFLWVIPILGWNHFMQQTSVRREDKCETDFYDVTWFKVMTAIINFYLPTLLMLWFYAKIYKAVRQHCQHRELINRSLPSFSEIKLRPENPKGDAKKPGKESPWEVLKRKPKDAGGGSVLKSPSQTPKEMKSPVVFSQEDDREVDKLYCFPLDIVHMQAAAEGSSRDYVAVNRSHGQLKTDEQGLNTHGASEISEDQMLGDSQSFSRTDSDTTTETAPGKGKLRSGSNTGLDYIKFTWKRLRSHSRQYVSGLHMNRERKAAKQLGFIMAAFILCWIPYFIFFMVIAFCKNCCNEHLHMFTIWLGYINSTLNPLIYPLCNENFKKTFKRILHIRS

## CC(C)(C)N1CCN(Cc2cc3nc(-c4cncc5[nH]ccc45)cc(N4CCOCC4)n3n2)CC1 [CPL302-253]
[1]; Agonist mode
  % Response HTR2B Agonist: 1.5%
[1]; Antagonist mode
  % Response HTR2B Antagonist: 12.6%
[2]; Agonist mode
  % Response CCKAR Agonist: -2.8%
[2]; Antagonist mode
  % Response CCKAR Antagonist: -2.4%
[3]; Agonist mode
  % Response OPRD1 Agonist: -6.4%
[3]; Antagonist mode
  % Response OPRD1 Antagonist: 0.4%
[4]; Agonist mode
  % Response AR Agonist: -0.7%
[4]; Antagonist mode
  % Response AR Antagonist: 8.5%
[5]
  % Response COX2 Inhibitor: 11.9%
[6]; Agonist mode
  % Response AVPR1A Agonist: -3.2%
[6]; Antagonist mode
  % Response AVPR1A Antagonist: -5.2%
[7]; Agonist mode
  % Response HTR1B Agonist: 8.0%
[7]; Antagonist mode
  % Response HTR1B Antagonist: 0.1%
[8]; Agonist mode
  % Response HRH2 Agonist: 0.6%
[8]; Antagonist mode
  % Response HRH2 Antagonist: 4.2%
[9]; Agonist mode
  % Response CHRM2 Agonist: 8.2%
[9]; Antagonist mode
  % Response CHRM2 Antagonist: 35.2%
[10]; Agonist mode
  % Response ADRB1 Agonist: 0.5%
[10]; Antagonist mode
  % Response ADRB1 Antagonist: 26.6%
[11]; Agonist mode
  % Response HRH1 Agonist: -0.2%
[11]; Antagonist mode
  % Response HRH1 Antagonist: 7.2%
[12]; Agonist mode
  % Response OPRM1 Agonist: -9.0%
[12]; Antagonist mode
  % Response OPRM1 Antagonist: 0.2%
[13]
  % Response NET Blocker: 8.5%
[14]
  % Response SERT Blocker: 21.5%
[15]; Agonist mode
  % Response EDNRA Agonist: -3.3%
[15]; Antagonist mode
  % Response EDNRA Antagonist: -4.8%
[16]; Agonist mode
  % Response OPRK1 Agonist: -11.0%
[16]; Antagonist mode
  % Response OPRK1 Antagonist: 0.3%
[17]
  % Response VEGFR2 Inhibitor: 30.7%
[18]; Agonist mode
  % Response HTR2A Agonist: -1.5%
[18]; Antagonist mode
  % Response HTR2A Antagonist: 11.5%
[19]
  % Response DAT Blocker: 56.1%
[20]; Agonist mode
  % Response ADORA2A Agonist: -0.8%
[20]; Antagonist mode
  % Response ADORA2A Antagonist: 11.7%
[21]
  % Response MAOA Inhibitor: 8.5%
[22]; Agonist mode
  % Response ADRA1A Agonist: -22.5%
[22]; Antagonist mode
  % Response ADRA1A Antagonist: -2.8%
[23]
  % Response LCK Inhibitor: 16.3%
[24]; Agonist mode
  % Response CHRM1 Agonist: 1.2%
[24]; Antagonist mode
  % Response CHRM1 Antagonist: 48.1%
[25]
  % Response ROCK1 Inhibitor: 10.3%
[26]; Agonist mode
  % Response DRD1 Agonist: 1.1%
[26]; Antagonist mode
  % Response DRD1 Antagonist: 9.3%
[27]
  % Response PDE3A Inhibitor: -8.1%
[28]
  % Response PDE4D2 Inhibitor: 2.0%
[29]; Agonist mode
  % Response CNR1 Agonist: -9.2%
[29]; Antagonist mode
  % Response CNR1 Antagonist: -1.3%
[30]
  % Response CAV1.2 Blocker: -1.1%
[31]; Agonist mode
  % Response CNR2 Agonist: 16.4%
[31]; Antagonist mode
  % Response CNR2 Antagonist: 1.1%
[32]; Blocker mode
  % Response HTR3A Blocker: 19.5%
[32]; Opener mode
  % Response HTR3A Opener: -0.8%
[33]; Agonist mode
  % Response CHRM3 Agonist: 1.2%
[33]; Antagonist mode
  % Response CHRM3 Antagonist: 12.6%
[34]
  % Response AChE Inhibitor: 27.8%
[35]; Agonist mode
  % Response ADRA2A Agonist: 0.4%
[35]; Antagonist mode
  % Response ADRA2A Antagonist: -0.7%
[36]; Blocker mode
  % Response GABAA Blocker: 1.4%
[36]; Opener mode
  % Response GABAA Opener: -2.3%
[37]; Agonist mode
  % Response GR Agonist: 0.0%
[37]; Antagonist mode
  % Response GR Antagonist: -5.6%
